Source: US9834542B2, “LXR modulators” (BRISTOL-MYERS SQUIBB COMPANY, priority 2013, dated 2017)

Target: T1, LXRβ (Homo sapiens, UniProt P55055)
T1 construct: Co-transfection expression plasmids, comprising full-length LXRα (pCMX-h LXRα[…] or LXRβ (pCMX-hLXRβ)); expressed in transfected cells; host or cells: CV-1 African Green Monkey Kidney Cells
T1 sequence (P55055 1-460): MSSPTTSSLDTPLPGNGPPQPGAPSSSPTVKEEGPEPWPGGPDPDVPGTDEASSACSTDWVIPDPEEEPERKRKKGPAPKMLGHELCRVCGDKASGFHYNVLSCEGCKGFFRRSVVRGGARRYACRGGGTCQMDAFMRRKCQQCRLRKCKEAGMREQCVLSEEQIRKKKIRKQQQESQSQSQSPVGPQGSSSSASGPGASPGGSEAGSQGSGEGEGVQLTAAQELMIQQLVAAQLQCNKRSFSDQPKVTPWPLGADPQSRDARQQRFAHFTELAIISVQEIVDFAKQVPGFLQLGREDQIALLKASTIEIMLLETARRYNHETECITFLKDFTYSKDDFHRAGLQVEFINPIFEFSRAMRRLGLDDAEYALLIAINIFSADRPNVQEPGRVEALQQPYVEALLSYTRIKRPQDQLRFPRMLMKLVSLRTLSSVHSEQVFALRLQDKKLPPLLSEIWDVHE
T1 sequence (P19793 1-462 partner): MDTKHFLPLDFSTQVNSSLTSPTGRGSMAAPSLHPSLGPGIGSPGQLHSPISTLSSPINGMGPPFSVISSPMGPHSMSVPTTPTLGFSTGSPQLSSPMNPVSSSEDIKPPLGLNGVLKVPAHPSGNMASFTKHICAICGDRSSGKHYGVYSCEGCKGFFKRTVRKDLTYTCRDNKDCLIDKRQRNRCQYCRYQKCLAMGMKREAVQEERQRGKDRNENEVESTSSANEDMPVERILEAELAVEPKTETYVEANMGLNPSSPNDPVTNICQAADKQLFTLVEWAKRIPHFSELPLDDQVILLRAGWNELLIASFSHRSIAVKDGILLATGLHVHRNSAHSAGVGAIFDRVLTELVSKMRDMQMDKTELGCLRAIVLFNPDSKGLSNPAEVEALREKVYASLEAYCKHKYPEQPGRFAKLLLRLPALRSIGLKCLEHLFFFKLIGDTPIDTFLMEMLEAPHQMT
Assay: Co-transfection assay (LXRE luciferase reporter), LXRβ
Format: cell-based
Parameters: % Efficacy: concentration or dose not given beside the values
Settings: for EC50: CV-1 cells transfected with pCMX-hLXRβ and LXREx1-Tk-Luciferase, 20 hours incubation; for Emax: read-out: % Efficacy
Method in brief: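 CV-1 cells transiently co-transfected with full-length human LXRβ expression plasmid, LXREx1-Tk-luciferase reporter and β-galactosidase control, then exposed to compound for 20 h at 37 °C. Luciferase luminescence read; EC50 from 11-point, ½-log dose–response fit, efficacy relative to high-control agonist maximum.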

[1] = LXRβ co-transfection, relative to high control 1-(2,4-difluorobenzyl)-2-oxo-6-(4-phenoxyphenyl)-4-(trifluoromethyl)-1,2-dihydropyridine-3-carbonitrile

`COc1ncc(-c2oc(C)nc2-c2cc(-c3cc(F)c(CO)c(S(C)(=O)=O)c3)ccc2-n2cc(Cl)nc2C)cc1F` [Example 465, (4′-(4-chloro-2-methyl-1H-imidazol-1-yl)-3-fluoro-3′-(5-(5-fluoro-6-methoxypyridin-3-yl)-2-methyloxazol-4-yl)-5-(methylsulfonyl)biphenyl-4-yl)methanol] gave an EC50 of 240 nM and an Emax [1] of 45%.

`Cc1nc(-c2cc(-c3cccc(S(C)(=O)=O)c3)ccc2-n2cc(C(F)(F)F)nc2C)c(-c2cccc(Cl)n2)o1` [Example 441, 5-(6-chloropyridin-2-yl)-2-methyl-4-(4-(2-methyl-4-(trifluoromethyl)-1H-imidazol-1-yl)-3′-(methylsulfonyl)biphenyl-3-yl)oxazole] was tested, and the EC50 was 1310 nM and the Emax [1] was 38%.

With `Cc1nc(C(F)(F)F)cn1-c1ccc(-c2cccc(S(C)(=O)=O)c2)cc1-n1nncc1C(O)(c1ccc(Cl)cc1)C(F)(F)F` (centres unmarked) [Example 11, 1-(4-chlorophenyl)-2,2,2-trifluoro-1-(1-{3′-(methylsulfonyl)-4-[2-methyl-4-(trifluoromethyl)-1H-imidazol-1-yl]biphenyl-3-yl}-1H-1,2,3-triazol-5-yl) ethanol] the EC50 was 332 nM and the Emax [1] was 79%.

`Cc1nc(C(F)F)cn1-c1ccc(-c2cccc(S(C)(=O)=O)c2)cc1-n1nncc1C(C)c1ccc(Cl)cc1` (centres unmarked) [Example 133, 5-[1-(4-chlorophenyl)ethyl]-1-{4-[4-(difluoromethyl)-2-methyl-1H-imidazol-1-yl]-3′-(methylsulfonyl)biphenyl-3-yl}-1H-1,2,3-triazole] gave an EC50 of 256 nM and an Emax [1] of 71%.

Compound `Cc1nc(-c2cc(-c3ccc(CO)c(S(C)(=O)=O)c3)ccc2-n2cc(C(F)(F)F)nc2C)c(-c2ccc(OC(F)F)c(F)c2)o1` [Example 402, (3′-(5-(4-(difluoromethoxy)-3-fluorophenyl)-2-methyloxazol-4-yl)-4′-(2-methyl-4-(trifluoromethyl)-1H-imidazol-1-yl)-3-(methylsulfonyl)biphenyl-4-yl)methanol] has an EC50 of 43 nM and an Emax [1] of 88%.

With `Cc1nc(C(F)(F)F)cn1-c1ccc(-c2cc(F)c(CO)c(S(C)(=O)=O)c2)cc1-n1nncc1C(=O)c1cccc(C(F)(F)F)c1` [Example 136, (1-{3′-fluoro-4′-(hydroxymethyl)-5′-(methylsulfonyl)-4-[2-methyl-4-(trifluoromethyl)-1H-imidazol-1-yl]biphenyl-3-yl}-1H-1,2,3-triazol-5-yl)[3-(trifluoromethyl)phenyl]meth-anone] the EC50 was 764 nM and the Emax [1] was 69%.

`COCS(=O)(=O)c1cccc(-c2ccc(-n3cc(C(F)(F)F)nc3C)c(-n3nncc3-c3ccc(OC(F)(F)F)cc3)c2)c1` [Example 238, 1-(3′-((methoxymethyl)sulfonyl)-4-(2-methyl-4-(trifluoromethyl)-1H-imidazol-1-yl)-[1,1′-biphenyl]-3-yl)-5-(4-(trifluoromethoxy)phenyl)-1H-1,2,3-triazole] was tested, and the EC50 was 489 nM and the Emax [1] was 90%.

Work on `Cc1nc(-c2cc(-c3cccc(S(C)(=O)=O)c3)ccc2-n2cc(C(F)(F)F)nc2C)c(-c2cc(F)c(OC(F)F)c(F)c2)o1` [Example 367, (4-(difluoromethoxy)-3,5-difluorophenyl)-2-methyl-4-(4-(2-methyl-4-(trifluoromethyl)-1H-imidazol-1-yl)-3′-(methylsulfonyl)-[, 1′-biphenyl]-3-yl)oxazole] yielded an EC50 of 175 nM and an Emax [1] of 78%.

In the case of `Cc1nc(C(F)(F)F)cn1-c1ccc(-c2cc(F)c(CO)c(S(C)(=O)=O)c2)cc1-n1nncc1-c1ccc(OC(F)(F)F)c(Cl)c1` [Example 78, {3′-(5-{3-chloro-4-[(trifluoromethyl)oxy]phenyl}-1H-1,2,3-triazol-1-yl)-3-fluoro-5-(methylsulfonyl)-4′-[2-methyl-4-(trifluoromethyl)-1H-imidazol-1-yl]biphenyl-4-yl}methanol], the EC50 is reported as 102 nM and the Emax [1] is reported as 94%.

`Cc1nc(C(F)(F)F)cn1-c1ccc(-c2cccc(C(C)(C)C(N)=O)c2)cc1-n1nncc1Cc1cccc(Cl)c1` [Example 114, 2-(3′-{5-[(3-chlorophenyl)methyl]-1H-1,2,3-triazol-1-yl}-4′-[2-methyl-4-(trifluoromethyl)-1H-imidazol-1-yl]biphenyl-3-yl)-2-methylpropanamide] gave an EC50 of 940 nM and an Emax [1] of 98%.

In the case of `CS(=O)(=O)c1cc(-c2cc(F)c(-n3cnc(C(F)(F)F)c3)c(-n3nncc3-c3ccc(Cl)cc3Cl)c2)cc(F)c1CO` [Example 190, {3′-[5-(2,4-dichlorophenyl)-1H-1,2,3-triazol-1-yl]-3,5′-difluoro-5-(methylsulfonyl)-4′-[4-(trifluoromethyl)-1H-imidazol-1-yl]biphenyl-4-yl}methanol], the EC50 is reported as 208 nM and the Emax [1] is reported as 119%.

For `Cc1nc(-c2ccc(Cl)cc2)c(-c2cc(-c3cc(F)c(CO)c(S(C)(=O)=O)c3)ccc2-n2cc(C(F)(F)F)nc2C)o1` [Example 606, (3′-(4-(4-chlorophenyl)-2-methyloxazol-5-yl)-3-fluoro-4′-(2-methyl-4-(trifluoromethyl)-1H-imidazol-1-yl)-5-(methylsulfonyl)-[1,1′-biphenyl]-4-yl)methanol], the EC50 was 52 nM and the Emax [1] was 79%.

`CS(=O)(=O)c1cccc(-c2ccc(-n3cnc(C(F)(F)F)c3)c(-n3nncc3-c3ccc(Cl)cc3Cl)c2)c1` [Example 19, 5-(2,4-dichlorophenyl)-1-{3′-(methylsulfonyl)-4-[4-(trifluoromethyl)-1H-imidazol-1-yl]biphenyl-3-yl}-1H-1,2,3-triazole] gave an EC50 of 1070 nM and an Emax [1] of 80%.

For `Cc1nc(-c2cc(-c3cc(F)c(CO)c(S(C)(=O)=O)c3)ccc2-n2cc(C(C)O)nc2C)c(-c2ccc3c(c2)OC(F)(F)O3)o1` (single isomer, unassigned) [Example 515, 1-(1-(3-(5-(2,2-difluorobenzo[d][1,3]dioxol-5-yl)-2-methyloxazol-4-yl)-3′-fluoro-4′-(hydroxymethyl)-5′-(methylsulfonyl)-[1,1′-biphenyl]-4-yl)-2-methyl-1H-imidazol-4-yl)ethanol], the EC50 was 1210 nM and the “% Efficacy” value [1] was 19%.

In the case of `CS(=O)(=O)c1cccc(-c2cc(Cl)c(-n3cnc(C(F)(F)F)c3)c(-n3nncc3-c3ccc(OC(F)(F)F)cc3)c2)c1` [Example 192, 1-{5-chloro-3′-(methylsulfonyl)-4-[4-(trifluoromethyl)-1H-imidazol-1-yl]biphenyl-3-yl}-5-{4-[(trifluoromethyl)oxy]phenyl}-1H-1,2,3-triazole], the EC50 is reported as 598 nM and the Emax [1] is reported as 42%.

`Cc1nc(-c2cc(-c3cccc(S(C)(=O)=O)c3)ccc2-n2cc(C(F)(F)F)nc2C)c(-c2ccc(SC(F)(F)F)cc2)o1` [Example 571, 2-methyl-4-(4-(2-methyl-4-(trifluoromethyl)-1H-imidazol-1-yl)-3′-(methylsulfonyl)-[1,1′-biphenyl]-3-yl)-5-(4-((trifluoromethyl)thio)phenyl)oxazole] gave an EC50 of 157 nM and an Emax [1] of 49%.

Work on `Cc1nc(-c2cc(-c3cccc(S(C)(=O)=O)c3)ccc2-n2cc(C(F)(F)F)nc2C)c(-c2ccc3c(c2)CCC3)o1` [Example 474, 5-(2,3-dihydro-1H-inden-5-yl)-2-methyl-4-(4-(2-methyl-4-(trifluoromethyl)-1H-imidazol-1-yl)-3′-(methylsulfonyl)biphenyl-3-yl)oxazole] yielded an EC50 of 119 nM and an Emax [1] of 53%.

Work on `Cc1nc(C(F)(F)F)cn1-c1c(Cl)cc(-c2cc(F)c(CO)c(S(C)(=O)=O)c2)cc1-n1nncc1-c1ccc(OC(F)(F)F)cc1` [Example 196, [3′-chloro-3-fluoro-5-(methylsulfonyl)-4′-[2-methyl-4-(trifluoromethyl)-1H-imidazol-1-yl]-5′-(5-{4-[(trifluoromethyl)oxy]phenyl}-1H-1,2,3-triazol-1-yl)biphenyl-4-yl]methanol] yielded an EC50 of 241 nM and an Emax [1] of 68%.

`Cc1nc(C(F)(F)F)cn1-c1ccc(-c2cc(Cl)c(CO)c(S(C)(=O)=O)c2)cc1-n1nncc1-c1ccc(Cl)c(Cl)c1` [Example 79, {3-chloro-3′-[5-(3,4-dichlorophenyl)-1H-1,2,3-triazol-1-yl]-5-(methylsulfonyl)-4′-[2-methyl-4-(trifluoromethyl)-1H-imidazol-1-yl]biphenyl-4-yl}methanol] showed an EC50 of 227 nM and an Emax [1] of 71%.
